Test results reported in the supplement of paper PMC10307832.

Tests used:
Test in all cases: relative viability (nuclei count vs DMSO), 5 days (fraction); higher = more cells survive
IU1-47 + Pictilisib = compound: CC1=CC(=C(N1C2=CC=C(C=C2)Cl)C)C(=O)CN3CCCCC3 [IU1-47] + CS(=O)(=O)N1CCN(Cc2cc3nc(-c4cccc5[nH]ncc45)nc(N4CCOCC4)c3s2)CC1 [Pictilisib] (partner 1 µM)
How it was run: (§1)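 A single step with final 0.05% Triton X-100, 1% formaldehyde and 1 ug/ml Hoechst fixed the cells and stained nuclei 5 days after treatment. Lung cancer cell lines in 1536-well plates had been treated by pin tool the day after seeding with one drug alone or a fixed anchor-drug dose plus five library-drug doses (not always all listed) in √10 steps, and nuclei were counted on 4× images. Relative viability is the ratio of nuclei in treated wells to nuclei in vehicle wells, taken as the median of duplicate plates.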

FG-4592 + Lapatinib = compound: Cc1nc(C(=O)NCC(=O)O)c(O)c2ccc(Oc3ccccc3)cc12 [FG-4592] + CS(=O)(=O)CCNCc1ccc(-c2ccc3ncnc(Nc4ccc(OCc5cccc(F)c5)c(Cl)c4)c3c2)o1 [Lapatinib] (partner 2 µM)
How it was run: as §1

IU1-47 + Trametinib = compound: CC1=CC(=C(N1C2=CC=C(C=C2)Cl)C)C(=O)CN3CCCCC3 [IU1-47] + CC(=O)Nc1cccc(-n2c(=O)n(C3CC3)c(=O)c3c(Nc4ccc(I)cc4F)n(C)c(=O)c(C)c32)c1 [Trametinib] (partner 0.02 µM)
How it was run: as §1

FG-4592 + Olaparib = compound: Cc1nc(C(=O)NCC(=O)O)c(O)c2ccc(Oc3ccccc3)cc12 [FG-4592] + O=C(c1cc(Cc2n[nH]c(=O)c3ccccc23)ccc1F)N1CCN(C(=O)C2CC2)CC1 [Olaparib] (partner 8 µM)
How it was run: as §1

## UMC-11
IU1-47 + Pictilisib; first compound 0.08 µM
  relative viability: 0.678
IU1-47 + Pictilisib; first compound 0.253 µM
  relative viability: 0.75
IU1-47 + Pictilisib; first compound 0.8 µM
  relative viability: 0.868
IU1-47 + Pictilisib; first compound 2.53 µM
  relative viability: 1.01
IU1-47 + Pictilisib; first compound 8 µM
  relative viability: 0.743
FG-4592 + Lapatinib; first compound 0.08 µM
  relative viability: 0.948
FG-4592 + Lapatinib; first compound 0.253 µM
  relative viability: 0.955
FG-4592 + Lapatinib; first compound 0.8 µM
  relative viability: 0.8
FG-4592 + Lapatinib; first compound 2.53 µM
  relative viability: 0.936
FG-4592 + Lapatinib; first compound 8 µM
  relative viability: 0.822
IU1-47 + Trametinib; first compound 0.08 µM
  relative viability: 0.681
IU1-47 + Trametinib; first compound 0.253 µM
  relative viability: 0.681
IU1-47 + Trametinib; first compound 0.8 µM
  relative viability: 0.748
IU1-47 + Trametinib; first compound 2.53 µM
  relative viability: 0.741
IU1-47 + Trametinib; first compound 8 µM
  relative viability: 0.664
FG-4592 + Olaparib; first compound 0.08 µM
  relative viability: 0.286
FG-4592 + Olaparib; first compound 0.253 µM
  relative viability: 0.332
FG-4592 + Olaparib; first compound 0.8 µM
  relative viability: 0.357
FG-4592 + Olaparib; first compound 2.53 µM
  relative viability: 0.341
FG-4592 + Olaparib; first compound 8 µM
  relative viability: 0.348
